Test results from PMC10046037, “GABRG2 Variants Associated with Febrile Seizures” (Biomolecules, 2023).

Target: T1, α1β3γ2 GABAA receptor, γ2F457S variant (Homo sapiens, UniProt P14867+P18507+P28472, F457S)
T1 construct: expressed in transfected cells; host or cells: HEK293T
T1 sequence (P14867 28-456): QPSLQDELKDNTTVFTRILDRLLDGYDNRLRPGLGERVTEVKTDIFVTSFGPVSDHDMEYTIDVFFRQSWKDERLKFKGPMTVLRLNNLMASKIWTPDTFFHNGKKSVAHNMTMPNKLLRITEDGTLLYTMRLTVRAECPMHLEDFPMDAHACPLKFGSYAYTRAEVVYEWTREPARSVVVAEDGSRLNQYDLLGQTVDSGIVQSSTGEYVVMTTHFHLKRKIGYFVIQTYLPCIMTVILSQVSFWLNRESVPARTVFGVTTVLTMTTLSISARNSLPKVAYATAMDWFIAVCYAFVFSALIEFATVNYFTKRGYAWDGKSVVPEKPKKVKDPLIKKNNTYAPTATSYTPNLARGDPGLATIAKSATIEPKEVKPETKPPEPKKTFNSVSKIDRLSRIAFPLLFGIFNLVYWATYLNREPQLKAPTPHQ
T1 sequence (P28472 26-473 isoform P28472-2): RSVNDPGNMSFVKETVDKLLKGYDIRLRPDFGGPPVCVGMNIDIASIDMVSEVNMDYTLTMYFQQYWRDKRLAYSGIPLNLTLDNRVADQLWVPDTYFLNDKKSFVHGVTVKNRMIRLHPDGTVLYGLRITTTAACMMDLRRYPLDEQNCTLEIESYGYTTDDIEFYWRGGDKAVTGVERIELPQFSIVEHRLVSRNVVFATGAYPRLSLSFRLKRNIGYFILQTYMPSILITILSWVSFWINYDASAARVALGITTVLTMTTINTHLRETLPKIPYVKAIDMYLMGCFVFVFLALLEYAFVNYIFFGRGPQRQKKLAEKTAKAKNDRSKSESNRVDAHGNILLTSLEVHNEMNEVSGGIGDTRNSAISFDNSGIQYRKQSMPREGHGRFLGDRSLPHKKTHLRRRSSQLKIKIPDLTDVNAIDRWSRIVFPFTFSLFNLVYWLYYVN
T1 sequence (P18507 40-475 F457S): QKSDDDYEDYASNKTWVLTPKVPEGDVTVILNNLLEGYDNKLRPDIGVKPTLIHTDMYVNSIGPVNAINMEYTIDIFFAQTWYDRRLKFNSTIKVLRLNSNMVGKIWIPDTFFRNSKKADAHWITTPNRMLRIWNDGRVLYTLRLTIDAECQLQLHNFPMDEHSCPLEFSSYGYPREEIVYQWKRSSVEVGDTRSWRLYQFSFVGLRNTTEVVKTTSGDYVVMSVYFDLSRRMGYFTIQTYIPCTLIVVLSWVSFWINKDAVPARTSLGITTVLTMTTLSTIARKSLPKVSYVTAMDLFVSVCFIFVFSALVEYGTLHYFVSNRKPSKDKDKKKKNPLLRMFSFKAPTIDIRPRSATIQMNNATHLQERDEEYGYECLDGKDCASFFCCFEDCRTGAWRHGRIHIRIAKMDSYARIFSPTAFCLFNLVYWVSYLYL
Assay: Automated patch clamp of GABA-elicited currents (SyncroPatch 384PE), γ2F457S
Type: cell-based
Conditions: mean
Protocol: The coding sequences of human α1 (GABRA1, NM_000806), β3 (GABRB3, NM_021912), and γ2 (GABRG2, NM_198904.2) GABAAR subunits were subcloned into the pcDNA3.1 expression vectors (Invitrogen, Waltham, MA, USA).
HEK293T cells (ATCC, CRL-11268) were cultured at 37 °C in a humidified 5% CO2 incubator and maintained in Dulbecco’s modified Eagle’s medium (Invitrogen) supplemented with 10% fetal bovine serum (Life Technologies, Carlsbad, CA, USA), and 100 IU/mL of penicillin/streptomycin (Life Technologies). For the expression experiments, 4 × 10^5 cells were transfected using polyethylenimine (PEI) reagent (40 kD, Polysciences, Warrington, PA, USA) at a DNA: to transfection reagent ratio of 1:2.5 and harvested 36 h after transfection. To express WT and variant α1β3γ2 receptors, a total of 3 µg of α1, β3, and γ2 (WT or mutant) subunit cDNAs were transfected at a ratio of 1:1:1 into 60 mm culture dishes. For the mock-transfected condition, an empty pcDNA3.1 vector was added for a final cDNA transfection amount of 3 μg. For the electrophysiology experiments, 2.5 × 10^5 cells were plated in 100 mm culture dishes and transfected after 24 h with 3 μg of cDNA of each α1, β3, γ2 (wild-type or mutant) subunit, using X-tremeGENE HP DNA transfection Reagent (Roche Diagnostics, Basel, Switzerland), following the manufacturer’s protocol. Recordings were obtained forty-eight hours after transfection.
Whole-cell patch clamp recordings were conducted according to the manufacturer’s standard procedure for the SyncroPatch 384 [31]. Whole-cell voltage-clamp recordings were performed at room temperature on HEK293T cells 48 h after transfection with GABAAR subunits, using the SyncroPatch 384PE (Nanion Technologies, Munich, Germany). Cells, at a concentration of 400,000 cells/mL, were harvested in suspension in external solution containing 140 mM of NaCl, 2 mM of CaCl2, 4 mM of KCl, 1 mM of MgCl2, 5 mM of glucose, and 10 mM of HEPES (pH 7.4 with NaOH, 298 mOsm). The cells were loaded in a multi-hole (4 holes per well) 384-well Nanion patch clamp (NPC) chip with a thick borosilicate glass bottom and an average resistance pore size of […]. Built-in electrophysiological protocols were used, and the data were digitized using PatchControl 384 (Nanion Technologies) application. Using PatchControl 384, electrophysiological parameters, such as seal resistance, capacitance, and series resistance, were determined for each well after the application of a test pulse, and subsequently monitored over time. […] The currents were normalized to the maximal response of each well, and the concentration–response curves were calculated from single-point additions. The EC50 values for each variant or wild-type receptor were calculated across multiple wells for each experimental condition.

Deactivation (1 mM GABA for 5 ms, HEK293T, -80 mV): 224.8 ms
IMAX (maximal GABA-evoked peak current) (1 mM GABA for 5 ms, HEK293T): 0.44 nA
IMAX variant/IMAX WT (1 mM GABA): 21.96%
Rise Time (10–90% rise time, 1 mM GABA for 5 ms, HEK293T): 60.51 ms
Compound: NCCCC(=O)O [GABA, γ-aminobutyric acid]
